Data as given in ChEMBL document CHEMBL1131885, “Acyclic structural variants of growth hormone secretagogue L-692,429” (1999).
The source made the active and inactive calls. The rule behind the calls is not given here.

Assays:
Rattus norvegicus [1] = organism: Rattus norvegicus; experiment: In vitro growth hormone release in rat pituitary cells assay was determined; format: functional; conditions: Pituitary gland cell, read-out: ED50 (the source's name)
Rattus norvegicus [2] = organism: Rattus norvegicus; experiment: In vitro growth hormone release in rat pituitary cells assay was determined; IA means inactive; format: functional, cell-based; conditions: Pituitary gland cell

Compound	EC50 (Rattus norvegicus [1])	ED50 (Rattus norvegicus [2])
CN(Cc1ccc(-c2ccccc2-c2nn[nH]n2)cc1)C(=O)[C@@H](CCc1ccccc1)NC(=O)CCC(C)(C)N	> 0.3 µM	–
CCN(Cc1ccc(-c2ccccc2-c2nn[nH]n2)cc1)C(=O)[C@@H](CCc1ccccc1)NC(=O)C(C)(C)N	> 0.5 µM	–
CC(C)(N)CC(=O)NCC(=O)NCc1ccc(-c2ccccc2-c2nn[nH]n2)cc1	–	inactive
CC(C)(N)CC(=O)N[C@H](Cc1ccccc1)C(=O)NCc1ccc(-c2ccccc2-c2nn[nH]n2)cc1	11 µM	–
CC(C)(N)CC(=O)N[C@H](COCc1ccccc1)C(=O)NCc1ccc(-c2ccccc2-c2nn[nH]n2)cc1	> 1 µM	–
CC(C)(N)CC(=O)N[C@H](CCc1ccccc1)C(=O)NCc1ccc(-c2ccccc2-c2nn[nH]n2)cc1	0.2 µM	–
CN(Cc1ccc(-c2ccccc2-c2nn[nH]n2)cc1)C(=O)[C@@H](CCc1ccccc1)NC(=O)C(C)(C)N	0.03 µM	–
CC[C@@H](NC(=O)CC(C)(C)N)C(=O)N(Cc1ccc(-c2ccccc2-c2nn[nH]n2)cc1)c1ccccc1	11 µM	–
CC(C)N(Cc1ccc(-c2ccccc2-c2nn[nH]n2)cc1)C(=O)[C@@H](CCc1ccccc1)NC(=O)C(C)(C)N	> 0.5 µM	–
CC(C)(N)CC(=O)N[C@H](Cc1c[nH]c2ccccc12)C(=O)NCc1ccc(-c2ccccc2-c2nn[nH]n2)cc1	0.4 µM	–
C[C@@H](NC(=O)CC(C)(C)N)C(=O)NCc1ccc(-c2ccccc2-c2nn[nH]n2)cc1	–	inactive
CN(C(=O)[C@@H](CCc1ccccc1)NC(=O)C(C)(C)N)c1ccc(-c2ccccc2-c2nn[nH]n2)cc1	0.3 µM	–
CN(Cc1ccc(-c2ccccc2-c2nn[nH]n2)cc1)C(=O)[C@@H](CCc1ccccc1)NC(=O)CC(C)(C)N	> 0.3 µM	–
CC(C)(N)CC(=O)N[C@@H]1CCc2ccccc2N(Cc2ccc(-c3ccccc3-c3nn[nH]n3)cc2)C1=O	0.06 µM	–
